Assay in all cases: biochemical
Common to all, as to design: In vitro kinase panel profiling, per cent remaining kinase activity at 10 uM

For one test, the target named is T1, MST1(h) (Homo sapiens, UniProt Q13043).
T1 construct: gene STK4
T1 sequence (Q13043 1-487): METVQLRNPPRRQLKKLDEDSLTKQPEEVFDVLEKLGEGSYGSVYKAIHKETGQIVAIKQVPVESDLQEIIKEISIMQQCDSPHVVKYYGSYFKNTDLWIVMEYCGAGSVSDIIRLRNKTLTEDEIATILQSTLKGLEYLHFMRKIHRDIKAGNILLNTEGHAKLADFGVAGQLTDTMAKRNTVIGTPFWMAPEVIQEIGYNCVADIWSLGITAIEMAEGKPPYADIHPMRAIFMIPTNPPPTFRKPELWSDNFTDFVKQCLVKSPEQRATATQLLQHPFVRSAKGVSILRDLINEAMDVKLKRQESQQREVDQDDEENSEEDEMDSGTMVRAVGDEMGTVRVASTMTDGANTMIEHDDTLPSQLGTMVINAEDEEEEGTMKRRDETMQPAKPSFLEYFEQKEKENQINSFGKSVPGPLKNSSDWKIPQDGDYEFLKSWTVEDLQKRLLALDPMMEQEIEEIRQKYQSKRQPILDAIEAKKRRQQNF
The note with it: atp_concentration=90, read-out: % of control remaining. From the text: (§1) We derisk potential for off-target activity by profiling the compound in a CEREP panel, a standard secondary pharmacology assessment, as well as a kinase panel to derisk a potential hinge-binding motif in our leads, and a PARP panel to derisk activity against human […]. Reassuringly, the compounds are selective, with the only off-targets being moderate human CHRM2 and KOR receptors activity associated with ASAP-0011198.

For the next test, the target named is Lyn(h) (Homo sapiens, UniProt P07948). The note with it: atp_concentration=70, read-out: % of control remaining.
Sequence of Lyn(h) (P07948 whole entry): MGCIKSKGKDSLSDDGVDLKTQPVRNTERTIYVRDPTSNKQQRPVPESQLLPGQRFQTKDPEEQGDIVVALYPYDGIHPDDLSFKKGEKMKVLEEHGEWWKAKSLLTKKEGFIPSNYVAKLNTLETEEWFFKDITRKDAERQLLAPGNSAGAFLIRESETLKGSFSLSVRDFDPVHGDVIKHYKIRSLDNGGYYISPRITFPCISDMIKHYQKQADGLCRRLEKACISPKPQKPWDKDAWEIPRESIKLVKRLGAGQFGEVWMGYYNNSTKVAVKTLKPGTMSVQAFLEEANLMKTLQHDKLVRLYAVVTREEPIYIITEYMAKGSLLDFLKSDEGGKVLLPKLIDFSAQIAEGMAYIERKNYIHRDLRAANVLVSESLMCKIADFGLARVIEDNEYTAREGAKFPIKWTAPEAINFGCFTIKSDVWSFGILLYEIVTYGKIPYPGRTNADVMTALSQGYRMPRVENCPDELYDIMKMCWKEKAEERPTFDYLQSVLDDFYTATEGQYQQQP
Description: as §1

Test [1] concerns the target T2, PI3 Kinase (p110β/p85α)(h) (Homo sapiens, UniProt P42338).
T2 construct: gene PIK3CB
The note with it: atp_concentration=200, read-out: % of control remaining.
Description: as §1

A further test has as its target T3, eEF-2K(h) (Homo sapiens, UniProt O00418).
T3 construct: gene EEF2K
T3 sequence (O00418 1-725): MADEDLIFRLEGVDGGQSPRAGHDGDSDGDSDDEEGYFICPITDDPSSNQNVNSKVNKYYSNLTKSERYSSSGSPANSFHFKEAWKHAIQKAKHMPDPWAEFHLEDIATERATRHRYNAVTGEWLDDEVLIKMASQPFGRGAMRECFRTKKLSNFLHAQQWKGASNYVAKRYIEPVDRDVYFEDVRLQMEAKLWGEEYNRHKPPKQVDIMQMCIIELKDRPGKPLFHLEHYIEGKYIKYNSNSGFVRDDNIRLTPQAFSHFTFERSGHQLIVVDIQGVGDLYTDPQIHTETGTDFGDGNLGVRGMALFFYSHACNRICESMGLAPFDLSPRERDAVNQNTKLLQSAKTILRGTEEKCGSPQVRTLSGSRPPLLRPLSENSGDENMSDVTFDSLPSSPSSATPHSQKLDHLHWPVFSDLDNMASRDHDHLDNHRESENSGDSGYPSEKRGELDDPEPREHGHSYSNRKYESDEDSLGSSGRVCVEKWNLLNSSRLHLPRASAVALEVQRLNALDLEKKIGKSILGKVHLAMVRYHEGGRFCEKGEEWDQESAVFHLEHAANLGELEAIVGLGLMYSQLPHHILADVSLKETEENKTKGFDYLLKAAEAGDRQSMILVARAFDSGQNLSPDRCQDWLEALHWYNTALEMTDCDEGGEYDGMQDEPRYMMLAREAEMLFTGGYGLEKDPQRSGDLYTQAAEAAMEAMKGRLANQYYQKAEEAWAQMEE
The note with it: atp_concentration=15, read-out: % of control remaining.
Description: as §1

For another test, the target named is T4, LOK(h) (Homo sapiens, UniProt O94804).
T4 construct: gene STK10
T4 sequence (O94804 whole entry): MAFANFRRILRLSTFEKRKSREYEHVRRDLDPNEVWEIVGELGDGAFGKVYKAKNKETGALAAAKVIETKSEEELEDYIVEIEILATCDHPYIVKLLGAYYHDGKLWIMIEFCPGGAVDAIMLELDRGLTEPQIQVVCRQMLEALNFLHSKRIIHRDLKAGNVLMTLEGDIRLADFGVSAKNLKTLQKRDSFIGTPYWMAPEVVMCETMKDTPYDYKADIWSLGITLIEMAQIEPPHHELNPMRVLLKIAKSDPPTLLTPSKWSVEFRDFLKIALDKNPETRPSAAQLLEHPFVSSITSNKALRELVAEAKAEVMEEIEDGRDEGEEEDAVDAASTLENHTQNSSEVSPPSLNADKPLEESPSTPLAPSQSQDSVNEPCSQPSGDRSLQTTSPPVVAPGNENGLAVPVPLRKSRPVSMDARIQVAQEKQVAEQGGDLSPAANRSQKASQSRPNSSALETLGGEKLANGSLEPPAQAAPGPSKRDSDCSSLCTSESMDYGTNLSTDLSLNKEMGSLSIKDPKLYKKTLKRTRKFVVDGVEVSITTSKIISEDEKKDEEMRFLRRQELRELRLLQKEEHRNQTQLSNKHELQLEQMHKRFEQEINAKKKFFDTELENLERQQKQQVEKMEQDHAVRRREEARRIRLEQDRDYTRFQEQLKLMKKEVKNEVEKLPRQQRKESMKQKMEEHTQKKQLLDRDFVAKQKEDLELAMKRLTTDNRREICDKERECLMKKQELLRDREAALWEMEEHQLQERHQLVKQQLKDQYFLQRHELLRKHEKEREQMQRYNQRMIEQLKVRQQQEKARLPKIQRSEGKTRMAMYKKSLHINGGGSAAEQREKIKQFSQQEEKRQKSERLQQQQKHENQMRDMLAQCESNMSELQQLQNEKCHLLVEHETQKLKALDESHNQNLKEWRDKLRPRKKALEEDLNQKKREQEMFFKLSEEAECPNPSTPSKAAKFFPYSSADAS
Particulars: atp_concentration=120, read-out: % of control remaining.
Description: as §1

In test [2] the target is T5, PI3 Kinase (p110δ/p85α)(h) (Homo sapiens, UniProt O00329).
T5 construct: gene PIK3CD
Particulars: atp_concentration=200, read-out: % of control remaining.
Description: as §1

A further test has as its target T6, IRAK4(h) (Homo sapiens, UniProt Q9NWZ3).
T6 sequence (Q9NWZ3 1-460): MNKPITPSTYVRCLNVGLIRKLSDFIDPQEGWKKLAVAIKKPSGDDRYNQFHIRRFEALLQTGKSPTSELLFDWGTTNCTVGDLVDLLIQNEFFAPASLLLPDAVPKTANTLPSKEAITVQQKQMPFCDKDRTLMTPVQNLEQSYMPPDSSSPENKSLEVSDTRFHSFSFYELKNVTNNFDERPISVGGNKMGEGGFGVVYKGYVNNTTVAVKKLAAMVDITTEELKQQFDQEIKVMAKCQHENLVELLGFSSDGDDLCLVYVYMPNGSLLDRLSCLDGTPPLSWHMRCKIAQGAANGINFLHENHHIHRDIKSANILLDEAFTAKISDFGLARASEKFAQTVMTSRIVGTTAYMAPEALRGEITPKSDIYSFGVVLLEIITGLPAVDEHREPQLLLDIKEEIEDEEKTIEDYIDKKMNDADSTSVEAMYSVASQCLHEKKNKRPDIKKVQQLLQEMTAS
The note with it: atp_concentration=200, read-out: % of control remaining.
Description: as §1

In another test the target is T7, p70S6K(h) (Homo sapiens, UniProt P23443).
T7 construct: gene RPS6KB1
T7 sequence (P23443 whole entry): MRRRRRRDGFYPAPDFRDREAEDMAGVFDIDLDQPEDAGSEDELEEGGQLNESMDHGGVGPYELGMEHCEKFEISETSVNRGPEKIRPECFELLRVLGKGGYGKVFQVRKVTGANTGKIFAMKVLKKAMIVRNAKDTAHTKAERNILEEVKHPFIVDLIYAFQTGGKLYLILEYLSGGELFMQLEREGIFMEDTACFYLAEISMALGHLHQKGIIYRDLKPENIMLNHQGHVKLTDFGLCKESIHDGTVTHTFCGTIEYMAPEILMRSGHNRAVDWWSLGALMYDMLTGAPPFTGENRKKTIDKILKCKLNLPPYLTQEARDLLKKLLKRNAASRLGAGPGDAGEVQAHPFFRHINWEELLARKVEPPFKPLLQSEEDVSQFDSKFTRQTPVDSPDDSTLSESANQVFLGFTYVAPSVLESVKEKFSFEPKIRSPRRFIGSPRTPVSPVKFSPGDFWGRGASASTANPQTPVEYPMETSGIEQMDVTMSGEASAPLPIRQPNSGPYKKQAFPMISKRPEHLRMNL
Particulars: atp_concentration=15, read-out: % of control remaining.
Description: as §1

In another test the target is T8, SAPK2a(h) (Homo sapiens, UniProt Q16539).
T8 construct: gene MAPK14
T8 sequence (Q16539 whole entry): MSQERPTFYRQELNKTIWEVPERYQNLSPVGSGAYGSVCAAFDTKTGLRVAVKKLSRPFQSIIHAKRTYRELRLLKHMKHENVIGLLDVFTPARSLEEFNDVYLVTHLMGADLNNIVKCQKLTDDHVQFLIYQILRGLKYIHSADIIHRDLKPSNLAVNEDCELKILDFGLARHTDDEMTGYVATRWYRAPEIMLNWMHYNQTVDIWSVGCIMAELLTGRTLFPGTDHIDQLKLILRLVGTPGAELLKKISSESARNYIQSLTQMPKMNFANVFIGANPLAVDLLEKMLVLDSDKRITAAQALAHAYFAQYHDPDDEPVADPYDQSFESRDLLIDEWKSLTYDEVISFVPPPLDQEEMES
The note with it: atp_concentration=90, read-out: % of control remaining.
Description: as §1

Like-named read-outs stand apart in the source and are kept apart here.

T2 sequence (P42338 whole entry): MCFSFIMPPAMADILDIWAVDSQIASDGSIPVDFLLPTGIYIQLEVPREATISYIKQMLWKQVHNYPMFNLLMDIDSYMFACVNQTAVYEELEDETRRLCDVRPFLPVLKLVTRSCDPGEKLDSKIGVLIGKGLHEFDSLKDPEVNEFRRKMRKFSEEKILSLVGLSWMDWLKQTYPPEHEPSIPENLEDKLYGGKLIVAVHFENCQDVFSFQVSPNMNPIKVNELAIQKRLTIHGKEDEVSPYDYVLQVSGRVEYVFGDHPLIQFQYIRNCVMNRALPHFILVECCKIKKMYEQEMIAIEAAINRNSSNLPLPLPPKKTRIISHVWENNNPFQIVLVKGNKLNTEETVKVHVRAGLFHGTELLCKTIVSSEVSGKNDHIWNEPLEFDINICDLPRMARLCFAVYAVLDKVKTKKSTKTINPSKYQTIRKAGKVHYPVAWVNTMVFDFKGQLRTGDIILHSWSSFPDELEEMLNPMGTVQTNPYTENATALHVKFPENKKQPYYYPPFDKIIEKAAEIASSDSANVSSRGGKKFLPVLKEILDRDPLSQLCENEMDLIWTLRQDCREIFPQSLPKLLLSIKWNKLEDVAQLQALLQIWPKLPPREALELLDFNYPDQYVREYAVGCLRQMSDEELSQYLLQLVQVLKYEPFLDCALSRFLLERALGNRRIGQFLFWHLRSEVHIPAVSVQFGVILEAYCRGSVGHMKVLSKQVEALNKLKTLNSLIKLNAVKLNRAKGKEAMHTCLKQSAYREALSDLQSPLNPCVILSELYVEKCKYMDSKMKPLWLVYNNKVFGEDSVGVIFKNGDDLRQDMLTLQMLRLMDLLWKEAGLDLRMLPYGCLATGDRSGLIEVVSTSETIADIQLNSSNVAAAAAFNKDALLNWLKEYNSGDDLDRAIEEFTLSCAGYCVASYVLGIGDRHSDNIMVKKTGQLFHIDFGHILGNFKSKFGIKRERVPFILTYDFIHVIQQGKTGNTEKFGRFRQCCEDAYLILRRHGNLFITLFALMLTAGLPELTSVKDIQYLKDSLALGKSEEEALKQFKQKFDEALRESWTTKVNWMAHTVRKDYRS
T2 sequence (P27986 whole entry partner): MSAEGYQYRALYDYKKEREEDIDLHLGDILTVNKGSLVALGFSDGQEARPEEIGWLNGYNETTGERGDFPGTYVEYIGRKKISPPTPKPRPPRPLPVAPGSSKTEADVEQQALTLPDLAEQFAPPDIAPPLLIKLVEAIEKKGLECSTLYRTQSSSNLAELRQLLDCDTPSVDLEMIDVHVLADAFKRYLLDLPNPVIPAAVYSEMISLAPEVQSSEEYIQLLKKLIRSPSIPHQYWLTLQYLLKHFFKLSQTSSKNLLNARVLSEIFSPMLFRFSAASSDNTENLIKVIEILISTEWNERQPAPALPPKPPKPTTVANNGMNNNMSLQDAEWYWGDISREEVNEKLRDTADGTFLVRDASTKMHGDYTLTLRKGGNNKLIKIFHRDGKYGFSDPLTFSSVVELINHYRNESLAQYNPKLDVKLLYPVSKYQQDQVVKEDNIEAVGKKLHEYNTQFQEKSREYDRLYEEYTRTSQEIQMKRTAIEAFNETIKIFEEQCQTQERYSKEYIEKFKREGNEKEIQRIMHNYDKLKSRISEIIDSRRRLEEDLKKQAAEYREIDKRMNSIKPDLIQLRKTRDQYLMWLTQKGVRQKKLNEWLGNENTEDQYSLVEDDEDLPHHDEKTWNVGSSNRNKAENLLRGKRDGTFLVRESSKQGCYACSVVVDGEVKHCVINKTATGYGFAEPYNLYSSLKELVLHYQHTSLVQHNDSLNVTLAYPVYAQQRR

As for `CNCc1cc(-c2cc3c(N[C@@H](c4ccc5c(c4)S(=O)(=O)CCC5)C(C)C)ncnc3[nH]2)co1` [ASAP-0011176], the remaining activity at 10 µM on MST1(h) (batch_name=ASAP-0011176-002) is 108%; on Lyn(h) (batch_name=ASAP-0011176-002) it was 47%; in test [1] (batch_name=ASAP-0011176-002) it was 92%; at eEF-2K(h) (batch_name=ASAP-0011176-002) it was 82%; at LOK(h) (batch_name=ASAP-0011176-002), 92%; in test [2] (batch_name=ASAP-0011176-002) it was 80%. Also, the remaining activity at 10 µM on IRAK4(h) (batch_name=ASAP-0011176-002) came out at 100%; on p70S6K(h) (batch_name=ASAP-0011176-002), 110%; on SAPK2a(h) (batch_name=ASAP-0011176-002), 97%.

For `CC(C)C(Nc1ncnc2[nH]c(C(=O)NC3CCN(C)C3)cc12)c1ccc2c(c1)S(=O)(=O)CCC2` (stereo not drawn) [ASAP-0011198], the remaining activity at 10 µM at MST1(h) (batch_name=ASAP-0011198-002) was 122%; at Lyn(h) (batch_name=ASAP-0011198-002), 107%; in test [1] (batch_name=ASAP-0011198-002) it was 99%; on eEF-2K(h) (batch_name=ASAP-0011198-002), 89%; at LOK(h) (batch_name=ASAP-0011198-002), 99%; in test [2] (batch_name=ASAP-0011198-002), 99%. The remaining activity at 10 µM on IRAK4(h) (batch_name=ASAP-0011198-002) amounted to 105%; at p70S6K(h) (batch_name=ASAP-0011198-002) it was 104%; on SAPK2a(h) (batch_name=ASAP-0011198-002), 97%.

In the case of `Cn1ncc(-c2cc3c(N[C@@H](c4ccc5c(n4)OCCO5)C(C)(C)C)ncnc3[nH]2)c1C#N` [ASAP-0011221], the remaining activity at 10 µM worked out at 115% on MST1(h) (batch_name=ASAP-0011221-002); 101% at Lyn(h) (batch_name=ASAP-0011221-002); 91% in [1] (batch_name=ASAP-0011221-002); 124% on eEF-2K(h) (batch_name=ASAP-0011221-002); 122% at LOK(h) (batch_name=ASAP-0011221-002); 73% in [2] (batch_name=ASAP-0011221-002). The remaining activity at 10 µM at IRAK4(h) (batch_name=ASAP-0011221-002) turned out to be 132%; at p70S6K(h) (batch_name=ASAP-0011221-002), 108%; on SAPK2a(h) (batch_name=ASAP-0011221-002) it was 106%.

Regarding `Cc1nn(C)cc1-c1cc2c(NC(c3ccc4c(c3)S(=O)(=O)CCC4)C(C)C)ncnc2[nH]1` (stereo not drawn) [ASAP-0011446], the remaining activity at 10 µM on MST1(h) (batch_name=ASAP-0011446-002) is 115%; on Lyn(h) (batch_name=ASAP-0011446-002) it was 48%; in test [1] (batch_name=ASAP-0011446-002), 105%; on eEF-2K(h) (batch_name=ASAP-0011446-002), 98%; on LOK(h) (batch_name=ASAP-0011446-002), 93%; in test [2] (batch_name=ASAP-0011446-002), 101%. Besides, the remaining activity at 10 µM was 107% at IRAK4(h) (batch_name=ASAP-0011446-002), 108% at p70S6K(h) (batch_name=ASAP-0011446-002) and 98% at SAPK2a(h) (batch_name=ASAP-0011446-002).

As for `C[C@H](C(=O)O)[C@@H](NC(=O)c1ncnc2[nH]ccc12)c1ccc(Br)cc1` [ASAP-0014722], the remaining activity at 10 µM amounted to 121% at MST1(h) (batch_name=ASAP-0014722-002); 94% on Lyn(h) (batch_name=ASAP-0014722-002); 97% in test [1] (batch_name=ASAP-0014722-002); 85% at eEF-2K(h) (batch_name=ASAP-0014722-002); 97% at LOK(h) (batch_name=ASAP-0014722-002); 97% in [2] (batch_name=ASAP-0014722-002). Also, the remaining activity at 10 µM was 106% on IRAK4(h) (batch_name=ASAP-0014722-002), 97% at p70S6K(h) (batch_name=ASAP-0014722-002) and 103% on SAPK2a(h) (batch_name=ASAP-0014722-002).

Take `COc1ccc([C@H](Cc2nnn[nH]2)NC(=O)c2ncnc3[nH]ccc23)cc1` [ASAP-0015381]: the remaining activity at 10 µM is 127% at MST1(h) (batch_name=ASAP-0015381-001); 108% at Lyn(h) (batch_name=ASAP-0015381-001); 97% in test [1] (batch_name=ASAP-0015381-001); 96% at eEF-2K(h) (batch_name=ASAP-0015381-001); 102% on LOK(h) (batch_name=ASAP-0015381-001); 97% in test [2] (batch_name=ASAP-0015381-001). Besides, the results for the remaining activity at 10 µM at IRAK4(h) (batch_name=ASAP-0015381-001), on p70S6K(h) (batch_name=ASAP-0015381-001) and at SAPK2a(h) (batch_name=ASAP-0015381-001) were 109%, 113% and 103%, respectively.

The values are drawn from paper doi:10.1101/2024.08.19.608619, “Discovery of potent SARS-CoV-2 nsp3 macrodomain inhibitors uncovers lack of translation to cellular antiviral response” (bioRxiv, 2024).
